{
  "source": "patent US5466675A",
  "about": "“Immunological activity of rhamnolipids” (priority 1992, dated 1995)",
  "key": {"[1]": {"system": "sheep red blood cell (SRBC) hemagglutination", "assay": "immunosuppression (humoral): sheep red blood cell (SRBC) hemagglutination", "assay_type": "in vivo, mouse (ICR, female)", "settings": "IP 30 × 3 mg/kg", "protocol": "(§1) Groups of 6 mice were sensitized by the IV injection of 0.2 ml of a 2% SRBC suspension. On the 9th day following sensitization, blood samples were withdrawn from the orbital sinus and equal parts of complement inactivated serum from the group of 6 mice were pooled to yield a single 0.25 ml sample. Serial 2-fold dilutions were then carried out 10 times in the presence of added complement. […] Serum titers of less than 16 or greater than 128 are considered significant and indicate possible immunosuppressant and immunostimulant activity, respectively.\n(§2) For immunostimulant activity, test substance or vehicle was administered i.p. to groups of mice for 3 consecutive days, and sensitized to SRBCs 2 hours after the third (last) injection. For immunosuppressant activity, test substance or vehicle was administered i.p. to groups of mice for 3 consecutive days beginning 2 hours after sensitization to SRBCs."}, "[2]": {"system": "oxazolone-induced delayed type hypersensitivity", "assay": "immunosuppression (cellular): oxazolone-induced delayed type hypersensitivity", "assay_type": "in vivo, mouse (ICR, female)", "settings": "IP 30 × 5 mg/kg", "protocol": "The shaved abdominal surface of groups of 5 mice were sensitized by application of 0.1 ml of 5% oxazolone. The test substance was administered i.p after 1 hour and then daily for 5 consecutive doses. After an additional 4 days, the animals were challenged by application of 25 ul of 5% oxazolone to the right ear. Twenty-four hours later, ear thickness was measured with a Dyer Model micrometer gauge.\nA 50 percent or greater decrease in drug-treated versus control animals is considered significant immunosuppressant activity."}, "[3]": {"system": "Candida albicans", "assay": "immunorestoration: immunosuppression with cyclophosphamide and infection with Candida albicans", "assay_type": "in vivo, mouse (ICR, female)", "settings": "for Survivor No.: n = 10", "excerpt": "[…] One day after the last immunosuppressant dose, the mice were challenged with a suspension of C. albicans sufficient to result in 90 to 100 percent mortality within 10 days in the vehicle treated control group. A greater than 30 percent survival for any drug treated group is considered significant, and possibly a result of immunorestorant activity."}, "[4]": {"system": "phospholipase A2", "settings": "Japanese patent No. 63 253 025; cited from earlier work"}, "[5]": {"system": "sheep red blood cell (SRBC) hemagglutination", "assay": "immunostimulation (humoral): sheep red blood cell (SRBC) hemagglutination", "assay_type": "in vivo, mouse (ICR, female)", "settings": "IP 30 × 3 mg/kg", "protocol": "as §1, §2"}, "[6]": {"system": "Candida albicans", "assay": "immunomodulation: infection with Candida albicans", "assay_type": "in vivo, mouse (ICR, female)", "settings": "IP 30 mg/kg", "protocol": "The test compound or vehicle was administered i.p. to groups of 10 mice 1 hour before IV, challenge with suspension of C. albicans sufficient to result in 90 to 100% mortality within 10 days in the vehicle treated control group. A greater than 30 percent survival for any treated group is considered very significant, and possibly a result of immunomodulation, while an increase of 20% is considered a moderate immunomodulation activity."}, "[7]": {"system": "oxazolone-induced delayed type hypersensitivity", "assay": "immunostimulation (cellular): oxazolone-induced delayed type hypersensitivity", "assay_type": "in vivo, mouse", "settings": "IP 100 × 5 mg/kg", "protocol": "The test substance was administered i.p to groups of 5 mice, 1 hour before application (sensitization) of oxazolone (0.1 ml of 5% solution) to the pre-shaven abdominal surface. Seven days later, 25 μl of a 2% solution of oxazolone was applied (challenge) to the right ear, with vehicle being applied to the left ear. After 24 hours, each mouse was sacrificed and ear thickness measured with a Dyer Model micrometer gauge. Greater than 30 percent enhancement is considered immunostimulant activity."}, "[8]": {"settings": "cyclophosphamide alone, PO 30 × 3 mg/kg"}, "[9]": {"settings": "IP 100 × 3 mg/kg + cyclophosphamide"}},
  "data": [
    {"compound": "O=P1(N(CCCl)CCCl)NCCCO1", "note": "(stereo not shown) [Cyclophosphamide, reference compound]", "values": [
      {"measurement": "SERUM TITER (Reciprocal Serum Dilution)", "setting": "[1]", "value": 4},
      {"measurement": "Swelling Inh. %", "setting": "[2]", "value": 59, "unit": "%"},
      {"measurement": "Swelling (R -L)", "setting": "[2]; X +/- SEM", "value": "10.6 +/- 1.8 × 0.01 mm"},
      {"measurement": "ear thickness, Left Ear (No Oxa.)", "setting": "[2]; X +/- SEM", "value": "19.0 +/- 0.4 × 0.01 mm"},
      {"measurement": "ear thickness, Right Ear (24 hrs Oxa.)", "setting": "[2]; X +/- SEM", "value": "29.6 +/- 2.2 × 0.01 mm"},
      {"measurement": "Death, days post-inoculum 0-1", "setting": "[3]; [8]", "value": "3 #/10 Mice"},
      {"measurement": "Death, days post-inoculum 2-3", "setting": "[3]; [8]", "value": "2 #/10 Mice"},
      {"measurement": "Death, days post-inoculum 4-6", "setting": "[3]; [8]", "value": "2 #/10 Mice"},
      {"measurement": "Death, days post-inoculum 7-9", "setting": "[3]; [8]", "value": "1 #/10 Mice"},
      {"measurement": "Survivor No.", "setting": "[3]; [8]", "value": 2}
    ]},
    {"compound": "rhamnopyranosyldecanoic acid", "values": [
      {"measurement": "phospholipase A2 inhibition", "setting": "[4]", "value": "phospholipase A2 inhibition"}
    ]},
    {"compound": "c1ccc([C@H]2CN3CCSC3=N2)cc1", "note": "[Levamisole, reference compound]", "values": [
      {"measurement": "SERUM TITER (Reciprocal Serum Dilution)", "setting": "[5]", "value": 128},
      {"measurement": "Death, days post-inoculum 0-1", "setting": "[6]", "value": "3 #/10 Mice"},
      {"measurement": "Death, days post-inoculum 2-3", "setting": "[6]", "value": "3 #/10 Mice"},
      {"measurement": "Death, days post-inoculum 4-6", "setting": "[6]", "value": "0 #/10 Mice"},
      {"measurement": "Death, days post-inoculum 7-9", "setting": "[6]", "value": "0 #/10 Mice"},
      {"measurement": "Response Inc. %", "setting": "[6]", "value": 20, "unit": "%"},
      {"measurement": "Survivor No.", "setting": "[6]; n = 10", "value": 4}
    ]},
    {"compound": "CC(C)(N1CC1C#N)N1CC1C(N)=O", "note": "(stereo not shown) [Azimexone, reference compound]", "values": [
      {"measurement": "Death, days post-inoculum 0-1", "setting": "[3]; [9]", "value": "2 #/10 Mice"},
      {"measurement": "Death, days post-inoculum 2-3", "setting": "[3]; [9]", "value": "1 #/10 Mice"},
      {"measurement": "Death, days post-inoculum 4-6", "setting": "[3]; [9]", "value": "1 #/10 Mice"},
      {"measurement": "Death, days post-inoculum 7-9", "setting": "[3]; [9]", "value": "1 #/10 Mice"},
      {"measurement": "Response Inc. %", "setting": "[3]; [9]", "value": 30, "unit": "%"},
      {"measurement": "Survivor No.", "setting": "[3]; [9]", "value": 5},
      {"measurement": "Swelling Inc. %", "setting": "[7]", "value": 31, "unit": "%"},
      {"measurement": "Swelling (R -L)", "setting": "[7]; X ± SEM", "value": "22.8 +/- 0.9 × 0.01 mm"},
      {"measurement": "ear thickness, Left Ear (No Oxa.)", "setting": "[7]; X ± SEM", "value": "21.4 +/- 0.5 × 0.01 mm"},
      {"measurement": "ear thickness, Right Ear (24 hrs Oxa.)", "setting": "[7]; X ± SEM", "value": "44.2 +/- 0.7 × 0.01 mm"}
    ]}
  ]
}
